Experimental data taken from patent publication US20250144067A1, “PERSONALIZED STARVATION THERAPY FOR CANCER” (Faeth Therapeutics, Inc., priority 2021, published 2025).
Where two headings read alike, the source gives them in different places.

Legend:
[1] = system: NCI-H292 lung cancer cells; test: FDA drug screening, complete media vs cholesterol-free media without statin (TABLE 1); format: cell-based, human
[2] = system: NCI-H292 lung cancer cells; test: FDA drug screening, complete media vs cholesterol-free media with simvastatin (TABLE 2); format: cell-based, human
[3] = Complete minus Cholesterol-free, >0 enhanced anti-cancer activity, about 0 neutral, <0 antagonist
[4] = NCI-H292 cells, cholesterol-free media without statin, FDA drug library screen
[5] = NCI-H292 cells, complete media, FDA drug library screen
[6] = NCI-H292 cells, cholesterol-free media with simvastatin 0.04 μM, FDA drug library screen (TABLE 2)
[7] = NCI-H292 cells, complete media, FDA drug library screen (TABLE 2)
[8] = complete media minus cholesterol-free media + simvastatin (0.04 μM), >0 enhanced anti-cancer activity, about 0 neutral, <0 antagonist
[9] = NCI-H292 cells, FDA library drug in cholesterol-free media with simvastatin 0.04 μM
[10] = NCI-H292 cells, FDA library drug in complete media
[11] = complete media vs cholesterol-free media + simvastatin (0.04 μM), >0 enhanced anti-cancer activity, about 0 neutral, <0 antagonist
[12] = NCI-H292 cells, FDA drug library screen, cholesterol-free media without statin
[13] = NCI-H292 cells, FDA drug library screen, complete media
[14] = NCI-H292 cells, drug in cholesterol-free media with simvastatin 0.04 μM
[15] = NCI-H292 cells, drug in complete media
[16] = NCI-H292 cells, cholesterol-free media without statin
[17] = complete vs cholesterol-free media, greater than 0 enhanced anti-cancer activity, about 0 neutral, below 0 antagonists
[18] = NCI-H292 cells, FDA drug library screen, cholesterol-free media with simvastatin 0.04 μM
[19] = complete media minus cholesterol-free media + simvastatin, >0 enhanced anti-cancer activity, about 0 neutral, <0 antagonist
[20] = Complete minus Cholesterol-free, greater than 0 enhanced anti-cancer activity, about 0 neutral, below 0 antagonist

## O=C(O)CCC(=O)Nc1ccc(S(=O)(=O)Nc2nccs2)cc1 [Succinylsulfathiazole]
[1]; [3]
  Difference: 0.03
[1]; [4]
  Cholesterol-free: 0.852
[1]; [5]
  Complete: 0.8836
[2]; [6]
  Cholesterol-free media + simvastatin (0.04 μM): 1.231
[2]; [7]
  Complete Media: 1.191
[2]; [8]
  Difference: −0.04

## OC[C@H]1O[C@@](CO)(O[C@H]2O[C@H](CO)[C@@H](O)[C@H](O)[C@H]2O)[C@@H](O)[C@@H]1O [Sucrose]
[1]; Complete minus Cholesterol-free, greater than 0 enhanced anti-cancer activity, about 0 neutral, below 0 antagonists
  Difference: −0.74
[1]; NCI-H292 cells in cholesterol-free media without statin
  Cholesterol-free: 1.582
[1]; NCI-H292 cells in complete media
  Complete: 0.843
[2]; [9]
  Cholesterol-free media + simvastatin (0.04 μM): 1.867
[2]; [10]
  Complete Media: 0.9772
[2]; [11]
  Difference: −0.89

## O=C([O-])CCSC[C@H]1O[C@@H]2O[C@H]3[C@H](O)[C@@H](O)[C@@H](O[C@H]4[C@H](O)[C@@H](O)[C@@H](O[C@H]5[C@H](O)[C@@H](O)[C@@H](O[C@H]6[C@H](O)[C@@H](O)[C@@H](O[C@H]7[C@H](O)[C@@H](O)[C@@H](O[C@H]8[C@H](O)[C@@H](O)[C@@H](O[C@H]9[C@H](O)C(O)[C@@H](O[C@H]1[C@H](O)[C@H]2O)O[C@@H]9CSCCC(=O)[O-])O[C@@H]8CSCCC(=O)[O-])O[C@@H]7CSCCC(=O)[O-])O[C@@H]6CSCCC(=O)[O-])O[C@@H]5CSCCC(=O)[O-])O[C@@H]4CSCCC(=O)[O-])O[C@@H]3CSCCC(=O)[O-].[Na+].[Na+].[Na+].[Na+].[Na+].[Na+].[Na+].[Na+] (stereo partly drawn) [Sugammadex (sodium)]
[1]; Complete minus Cholesterol-free, […]
  Difference: −0.11
[1]; [12]
  Cholesterol-free: 1.596
[1]; [13]
  Complete: 1.487
[2]; NCI-H292 cells, cholesterol-free media with simvastatin 0.04 μM, […]
  Cholesterol-free media + simvastatin (0.04 μM): 0.9061
[2]; NCI-H292 cells, complete media, […]
  Complete Media: 0.9946
[2]; complete media minus cholesterol-free media + simvastatin, […]
  Difference: 0.09

## CC1(C)[C@H](C(=O)O)N2C(=O)C[C@H]2S1(=O)=O [Sulbactam]
[1]
  Cholesterol-free: 1.094
  Complete: 1.056
  Difference: −0.04
[2]
  Cholesterol-free media + simvastatin (0.04 μM): 1.06
  Complete Media: 1.241
  Difference: 0.18

## CC1(C)S[C@@H]2[C@H](NC(=O)C(c3ccccc3)S(=O)(=O)O)C(=O)N2[C@H]1C(=O)O (stereo partly drawn) [Sulbenicillin (disodium)]
[1]; [4]
  Cholesterol-free: 0.8061
[1]; [5]
  Complete: 1.226
[1]; complete vs cholesterol-free media, >0 enhanced anti-cancer activity, about 0 neutral, <0 antagonist
  Difference: 0.42
[2]; [14]
  Cholesterol-free media + simvastatin (0.04 μM): 1.164
[2]; [15]
  Complete Media: 0.9986
[2]; [11]
  Difference: −0.17

## Nc1ccc(S(=O)(=O)NC(=O)c2ccccc2)cc1 [Sulfabenzamide]
[1]; [16]
  Cholesterol-free: 1.412
[1]; NCI-H292 cells, complete media
  Complete: 1.023
[1]; [17]
  Difference: −0.39
[2]; [14]
  Cholesterol-free media + simvastatin (0.04 μM): 1.231
[2]; [15]
  Complete Media: 1.041
[2]; [11]
  Difference: −0.19

## NC(=O)NS(=O)(=O)c1ccc(N)cc1 [Sulfacarbamide]
[1]; [3]
  Difference: 0.04
[1]; [4]
  Cholesterol-free: 0.9085
[1]; [5]
  Complete: 0.9465
[2]; [18]
  Cholesterol-free media + simvastatin (0.04 μM): 0.9379
[2]; [13]
  Complete Media: 1.144
[2]; [19]
  Difference: 0.21

## CC(=O)NS(=O)(=O)c1ccc(N)cc1 [Sulfacetamide (Sodium)]
[1]; [3]
  Difference: 0.04
[1]; [4]
  Cholesterol-free: 0.8669
[1]; [5]
  Complete: 0.9047
[2]; [18]
  Cholesterol-free media + simvastatin (0.04 μM): 1.134
[2]; [13]
  Complete Media: 1.384
[2]; [19]
  Difference: 0.25

## CC(=O)NS(=O)(=O)c1ccc(N)cc1 [Sulfacetamide]
[1]; [20]
  Difference: −0.14
[1]; [12]
  Cholesterol-free: 1.146
[1]; [13]
  Complete: 1.008
[2]; [18]
  Cholesterol-free media + simvastatin (0.04 μM): 0.6778
[2]; [13]
  Complete Media: 0.8793
[2]; [19]
  Difference: 0.20

## Nc1ccc(S(=O)(=O)Nc2ccc(Cl)nn2)cc1 [Sulfachloropyridazine]
[1]; [20]
  Difference: −0.17
[1]; [12]
  Cholesterol-free: 1.057
[1]; [13]
  Complete: 0.8847
[2]; [6]
  Cholesterol-free media + simvastatin (0.04 μM): 0.9751
[2]; [7]
  Complete Media: 0.932
[2]; [8]
  Difference: −0.04

## Nc1ccc(S(=O)(=O)Nc2ncccn2)cc1 [Sulfadiazine (sodium)]
[1]; [20]
  Difference: −0.12
[1]; [12]
  Cholesterol-free: 1.217
[1]; [13]
  Complete: 1.095
[2]; [14]
  Cholesterol-free media + simvastatin (0.04 μM): 1.234
[2]; [15]
  Complete Media: 0.9756
[2]; [11]
  Difference: −0.26

## Nc1ccc(S(=O)(=O)Nc2ncccn2)cc1 [Sulfadiazine]
[1]; [16]
  Cholesterol-free: 1.21
[1]; NCI-H292 cells, complete media
  Complete: 0.7631
[1]; [17]
  Difference: −0.45
[2]; NCI-H292 cells, cholesterol-free media with simvastatin 0.04 μM, cell growth value in FDA drug screen
  Cholesterol-free media + simvastatin (0.04 μM): 1.499
[2]; NCI-H292 cells, complete media, cell growth value in FDA drug screen
  Complete Media: 1.555
[2]; [19]
  Difference: 0.06

## COc1cc(NS(=O)(=O)c2ccc(N)cc2)nc(OC)n1 [Sulfadimethoxine (sodium)]
[1]; [3]
  Difference: −0.30
[1]; [16]
  Cholesterol-free: 1.031
[1]; NCI-H292 cells, complete media
  Complete: 0.7288
[2]; [9]
  Cholesterol-free media + simvastatin (0.04 μM): 1.876
[2]; [10]
  Complete Media: 1.521
[2]; [11]
  Difference: −0.35

## COc1cc(NS(=O)(=O)c2ccc(N)cc2)nc(OC)n1 [Sulfadimethoxine]
[1]; [16]
  Cholesterol-free: 1.234
[1]; NCI-H292 cells, complete media
  Complete: 0.8763
[1]; [17]
  Difference: −0.36
[2]; [18]
  Cholesterol-free media + simvastatin (0.04 μM): 0.819
[2]; [13]
  Complete Media: 0.9685
[2]; [19]
  Difference: 0.15
